Tests used:
[1] = test system: bleomycin-induced respiratory impairment; test: Respiratory measurements by whole body plethysmography, BLM rat model, combination study (Example 3, Table E6); assay type: in vivo, rat (male Sprague Dawley); set-up: Tidal Volume: unit not given here; conditions: for Expiratory Time / Inspiratory Time / Peak Expiratory Flow / Peak Inspiratory Flow / Tidal Volume / Respiratory Rate / Respiratory Minute Volume: mean; for Respiratory Rate: in breaths/min (unit assumed); for Respiratory Minute Volume: in mL/min (unit assumed)
Method: (§1) PBS or BLM was administered under isoflurane anesthesia. Excess rats were induced with BLM and used to replace any animals with excessive body weight loss.
(§2) All treatments commenced on Day 9.
(§3) In-life, body weights were measured and clinical observations were conducted daily. On Days 8, 15 and 21, animals were removed from their home cages and placed individually into whole body plethysmography chambers. After a 20-minute acclimatization phase, respiratory parameters were recorded for 10 minutes. Pre-study and on Days 10 and Day 17, whole blood was obtained from the tail vein and processed to serum for measurement of HRS^FC1.

[2] = test system: bleomycin-induced lung fibrosis; test: Histological fibrosis (modified Ashcroft) score, BLM rat model, combination study (Example 3); assay type: in vivo, rat (male Sprague Dawley); conditions: BLM-induced rats; alone or in combination, vs PO plus IV vehicles; data not shown
Method: (§4) The five lung lobes were collected and weighed. On Day 17, the right accessory lobe was retained and desiccated to obtain dry weight. The remaining right lung lobes were inflated and fixed in 10% neutral buffered formalin and embedded in paraffin for histological analysis. An approximately 50 mg piece of the left lung lobe was snap frozen and stored at −80° C. for potential RNA analysis. The remainder of the lobe was also snap frozen until analyzed for collagen content.
(§5) Sections for histology were stained using picrosirius red and were scored in a blinded fashion (1 score for each of the 3-4 lobes) by a veterinary pathologist using a modified Ashcroft score (Hubner et al., 2008). Hydroxyproline content was determined in the left lung lobe using a mass spectrometry method.
(§6) Slides were read by a veterinary pathologist and each of the 3 lobes evaluated was assigned 4 score types [Ashcroft for fibrosis (scores range from 0 to 8), perivascular/peribronchiolar inflammatory cell infiltrate (scores range from 0 to 5), interstitial/alveolar inflammatory cell infiltrate (scores range from 0 to 5), type II pneumocyte hyperplasia (scores range from 0 to 5)].

[3] = test system: bleomycin-induced lung inflammation; test: Interstitial/alveolar inflammatory cell infiltrate score, BLM rat model, combination study (Example 3); assay type: in vivo, rat (male Sprague Dawley); conditions: BLM-induced rats; alone or in combination, vs PO plus IV vehicles; data not shown
Method: as §4, §5, §6

[4] = Body weight, BLM rat model, combination study (Example 3); assay type: in vivo, rat (male Sprague Dawley); conditions: BLM-induced rats; Nintedanib, Pirfenidone or Test Article (HRS^FC1 3 mg/kg IV weekly), alone or in combination, from Day 9
Method: as §1, §2, §3

[5] = Serum HRS^FC1 levels by sandwich ELISA, BLM rat model (Example 3); assay type: in vivo, rat (male Sprague Dawley); conditions: for Serum levels of HRS^FC1 ~24 hours post dose, vs HRS^FC1 plus oral vehicle: FIG. 6; for Amount of HRS^FC1 in serum 24 hours after IV injection: second confirmatory study, identical methods, data not shown
Method: as §2, §3
Serum samples from animals treated with HRS^FC1 were used to determine levels of the protein in systemic circulation using standard sandwich ELISA techniques with antibodies that capture the HRS moiety and detect the Fc portion of the fusion protein.
All statistical analyses were performed using GraphPad Prism (GraphPad Software, San Diego, Calif.). Groups were compared using the one-way ANOVA test (histology, lung weights, collagen content) or two-way repeated measures ANOVA test (pharmacokinetics), followed, when appropriate by a post-hoc Dunnett test.

[6] = test system: bleomycin-induced lung fibrosis; test: Histological fibrosis (modified Ashcroft) score, BLM mouse model (Example 1); assay type: in vivo, mouse (male C57Bl/6J); conditions: BLM-induced mice; dexamethasone 0.25 mg/kg/dose from day of BLM instillation; Summary value, significant
Method: (§7) The five lung lobes were collected and isolated. Wet weight of the medial and accessory lung lobes was recorded. The lobes were then snap frozen and stored at <−70° C. until use for hydroxyproline analysis. The left lung lobe was inflated and fixed for 48 hours in 4% formaldehyde and embedded in paraffin for histological analysis. The cranial lung lobe was snap frozen and stored at −80° C. until shipment to Kinemed for the determination of new collagen formation.
Sections of the left lung lobe were stained using Masson's Trichrome and were scored in a blinded fashion using a modified Ashcroft score (Hubner et al., BioTechniques. 44:507-511, 514-507, 2008). Hydroxyproline content was determined in the medial and accessory lung lobes using acid hydrolysis followed by a chromogenic assay (QuickZyme Biosciences, Leiden, Netherlands). Newly formed collagen was measured in the cranial lung lobe by Kinemed Inc., Emeryville, USA using the fraction of body water enriched in 2H for normalization.

[7] = Body weight, BLM mouse model (Example 1); assay type: in vivo, mouse (male C57Bl/6J); conditions: BLM-induced mice; daily PO from Day 0: dexamethasone 0.25 mg/kg, Nintedanib 60 mg/kg
Method: (§8) Lung inflammation and fibrosis were induced in male C57Bl/6J mice by oropharyngeal administration of BLM. After the habituation phase mice were randomized based on body weight over the different groups. Under isoflurane anesthesia, 50 μl PBS or BLM was dripped onto the vocal cords facilitating aspiration. Mice were sacrificed at day 21 using a terminal bleed under isoflurane anesthesia.
(§9) Daily oral treatments commenced on Day 0, while daily IV treatments commenced on Day 8. Dosing was planned to continue until the day of termination (Day 21), however, due to high mortality in IV treated groups (see results), IV dosing was skipped on Day 19 and Day 20. […] Subsequently, the mice received 8% D20 (Kinemed, Emeryville) drinking water until sacrifice to maintain labeling of newly formed collagen. Body weight was monitored three times a week.

[8] = test system: bleomycin-induced lung fibrosis; test: Lung wet and dry weight, BLM mouse model (Example 1); assay type: in vivo, mouse (male C57Bl/6J); conditions: BLM-induced mice; dexamethasone 0.25 mg/kg PO daily from Day 0
Method: as §8, §9, §7

[9] = test system: bleomycin-induced lung fibrosis; test: Survival, BLM-induced lung fibrosis mouse model (Example 1, Table E2); assay type: in vivo, mouse (male C57Bl/6J); conditions: for Survival (number of animals surviving to study day): Dex. 0.25 mg/kg PO, BLM mice, 12 at start
Method: as §8, §9
The study commenced with 7 animals in the non-diseased control group and 12 animals in the BLM-induced groups. Survival is show in Table E2 below.

[10] = Day 8 (prior to any treatments), Pirf. PO + Vehicle IV group

Cc1ccc(=O)n(-c2ccccc2)c1 [Pirfenidone, pirfenidone]
BLM-induced alterations in respiratory parameters ([1]; BLM-induced rats, Day 15 and Day 21, Nintedanib, Pirfenidone or Test Article (HRS^FC1)): did not significantly impact | Interstitial inflammatory cell infiltrate (as printed in the Ashcroft score paragraph) [2]: no significant effect | Interstitial inflammatory cell infiltrate [3]: no significant effect | Body weight curves vs respective controls [4]: None of the groups treated with Nintedanib, Pirfenidone or Test Article alone or in combination had body weight curves that significantly differed

Cc1ccc(=O)n(-c2ccccc2)c1 [Pirf.]
Expiratory Time [1, 10]: 0.153 s | Inspiratory Time [1, 10]: 0.114 s | Peak Expiratory Flow [1, 10]: 19.5 | Peak Inspiratory Flow [1, 10]: 17.5 | Tidal Volume [1, 10]: 1.24 | Respiratory Rate [1, 10]: 247.6 | Respiratory Minute Volume [1, 10]: 314.8 | Expiratory Time ([1]; Day 15, Pirf. PO + Vehicle IV): 0.193 s | Inspiratory Time ([1]; Day 15, Pirf. PO + Vehicle IV): 0.135 s | Peak Expiratory Flow ([1]; Day 15, Pirf. PO + Vehicle IV): 15.0 | Peak Inspiratory Flow ([1]; Day 15, Pirf. PO + Vehicle IV): 15.6 | Tidal Volume ([1]; Day 15, Pirf. PO + Vehicle IV): 1.23 | Respiratory Rate ([1]; Day 15, Pirf. PO + Vehicle IV): 206.2 | Respiratory Minute Volume ([1]; Day 15, Pirf. PO + Vehicle IV): 260.2 | Expiratory Time ([1]; Day 21, Pirf. PO + Vehicle IV): 0.234 s | Inspiratory Time ([1]; Day 21, Pirf. PO + Vehicle IV): 0.148 s | Peak Expiratory Flow ([1]; Day 21, Pirf. PO + Vehicle IV): 13.0 | Peak Inspiratory Flow ([1]; Day 21, Pirf. PO + Vehicle IV): 15.8 | Tidal Volume ([1]; Day 21, Pirf. PO + Vehicle IV): 1.43 | Respiratory Rate ([1]; Day 21, Pirf. PO + Vehicle IV): 186.5 | Respiratory Minute Volume ([1]; Day 21, Pirf. PO + Vehicle IV): 259.6

HRS^FC1: Test Article of Examples 2 and 3; HRS-Fc fusion protein Fc-HRS(2-60)
Serum levels of HRS^FC1, change between Days 17 and 22 ([5]; BLM-induced rats, 3 mg/kg IV on Days 9 and 16): decreased | Serum levels of HRS^FC1 ([5]; BLM-induced rats, 3 mg/kg IV on Days 9 and 16, Days 10, 17 and 22): detectable | Serum levels of HRS^FC1 ~24 hours post dose, vs HRS^FC1 plus oral vehicle ([5]; BLM-induced rats, concomitant oral Nintedanib 60 mg/kg once daily): significantly increased | Serum levels of HRS^FC1 ~24 hours post dose, vs HRS^FC1 plus oral vehicle ([5]; BLM-induced rats, concomitant oral Pirfenidone 70 mg/kg per dose three times daily): significantly increased | Amount of HRS^FC1 in serum 24 hours after IV injection ([5]; concomitant Nintedanib): increased | Amount of HRS^FC1 in serum 24 hours after IV injection ([5]; concomitant Pirfenidone): increased

C[C@@H]1C[C@H]2[C@@H]3CCC4=CC(=O)C=C[C@]4(C)[C@@]3(F)[C@@H](O)C[C@]2(C)[C@@]1(O)C(=O)CO [dexamethasone]
Improvement of Ashcroft fibrosis score [6]: 11.3% | Body weight, of initial body weights [7]: around 90% | Decrease of lung wet weight compared to PO vehicle group [8]: 15.6% | Survival rate ([9]; BLM-induced mice to Day 21, daily PO from Day 0: dexamethasone 0.25 mg/kg, Nintedanib 60 mg/kg): 75% | Survival (number of animals surviving to study day) ([9]; Day 11): 12 | Survival (number of animals surviving to study day) ([9]; Day 12): 12 | Survival (number of animals surviving to study day) ([9]; Day 13): 11 | Survival (number of animals surviving to study day) ([9]; Day 14): 10 | Survival (number of animals surviving to study day) ([9]; Day 15): 10 | Survival (number of animals surviving to study day) ([9]; Day 16): 10 | Survival (number of animals surviving to study day) ([9]; Day 17): 10 | Survival (number of animals surviving to study day) ([9]; Day 18): 9 | Survival (number of animals surviving to study day) ([9]; Day 19): 9 | Survival (number of animals surviving to study day) ([9]; Day 20): 9 | Survival (number of animals surviving to study day) ([9]; Day 21): 9
